We go through 8 molecules from PubChem BioAssay (NCI).

Common to all, as to experiment: growth of human tumour cells (NCI), 48 h
Experiment [1] deals with OVCAR-8 ovarian.
The test system of experiment [2] is HCT-116 colon.
Experiment [3] relates to SK-MEL-28 melanoma.
In experiment [4] the test system is SNB-75 CNS.
The subject of experiment [5] is U251 CNS.
Experiment [6] relates to OVCAR-3 ovarian.
For experiment [7], the system named is M14 melanoma.
Experiment [8] relates to MDA-MB-231 breast.
In experiment [9] the test system is SK-MEL-5 melanoma.
For experiment [10], the system named is SNB-19 CNS.

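A five-concentration, 48-hour dose response in 96-well plates underlies each endpoint, interpolated linearly between surrounding concentrations. At the GI50, growth is halved. TGI: concentration producing complete growth inhibition.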 Bounds are passed on as bounds.

Regarding `CCn1cnc(C[C@H](NC(=O)[C@H](CCCCNC(=O)Nc2cc(C(F)(F)F)cc(C(F)(F)F)c2)NC(=O)Nc2cc(C(F)(F)F)cc(C(F)(F)F)c2)C(=O)OC)c1`, the GI50 in experiment [1] was 5.02 µM; in experiment [2], 3.87 µM; in experiment [3], 6.62 µM; in [4] it was 1.37 µM; in experiment [5], 3.8 µM; in [6], 3.32 µM. For the same molecule, the GI50 in experiment [7] was 6.29 µM; in experiment [8], 2.58 µM; in experiment [9] it was 7.75 µM; in experiment [10], 5.1 µM. Also, the TGI in [1], in experiment [2], in experiment [3], in experiment [4], in experiment [5] and in experiment [6] was above 10 µM each time. Besides, the TGI in experiment [7] is above 10 µM; in experiment [8], 6.37 µM; in [9], above 10 µM; in experiment [10] it was above 10 µM.
As to `CCCCCC/C=C/C#CCCCCCCCC(=O)O`, the TGI in experiment [1], in [2], in [3], in experiment [4], in experiment [5] and in experiment [6] was above 100 µM each time. For the same molecule, the TGI in experiment [7], in experiment [8], in [9] and in experiment [10] was above 100 µM each time.
As to `OCC1NC(COC2OC(CO)C(O)C(O)C2O)C(O)C(O)C1O` (stereo not given), the TGI in [1], in [2], in experiment [3], in experiment [4], in experiment [5] and in [6] was above 100 µM throughout. The TGI in experiment [7], in [8], in experiment [9] and in [10] was above 100 µM throughout.
For `Cc1cccc(C(C)(C)C)c1NC(=O)C(C#N)C1=C(Cl)C(=O)c2ccccc2C1=O` (stereo not given), the TGI in experiment [1] is 37.4 µM; in [2], 27.2 µM; in experiment [3], 31.5 µM; in experiment [4] it was 27.6 µM; in experiment [5], 31.3 µM; in experiment [6], 31.4 µM. Further, the TGI in experiment [7] is 32.5 µM; in [8], 27.3 µM; in experiment [9] it was 31.5 µM; in [10], 39.1 µM.
Take `Oc1ccc(NC(=S)Nc2ccccc2)cc1`: the GI50 in experiment [1], in experiment [2], in experiment [3], in experiment [4], in experiment [5] and in experiment [6] was above 100 µM each time. In addition, the GI50 in experiment [7], in experiment [8], in experiment [9] and in experiment [10] was above 100 µM throughout. For the same molecule, the TGI in experiment [1], in experiment [2], in experiment [3], in experiment [4], in experiment [5] and in experiment [6] was above 100 µM throughout. Further, the TGI in [7], in [8], in [9] and in [10] was above 100 µM each time.
Take `CC(C)C[C@H](CC(=O)O)C(=O)N[C@@H](Cc1c[nH]c2ccccc12)C(=O)N[C@@H](C)c1ccccc1`: the GI50 in experiment [1], in [2], in experiment [3], in experiment [4], in [5] and in experiment [6] was above 25 µM throughout. Further, the GI50 in experiment [7], in [8], in [9] and in experiment [10] was above 25 µM throughout. In addition, the TGI in experiment [1], in experiment [2], in experiment [3], in experiment [4], in experiment [5] and in [6] was above 25 µM each time. Further, the TGI in [7], in [8], in [9] and in [10] was above 25 µM in each case.
For `C[C@@H]1CC[C@H]2[C@@H](C)C(O)O[C@@H]3O[C@]4(C)CC[C@@H]1[C@]32OO4` (stereo not given in full), the GI50 was 0.389 µM in [1]; 0.141 µM in experiment [2]; 3.23 µM in experiment [3]; 2.54 µM in experiment [4]; 0.532 µM in experiment [5]; 0.431 µM in [6]. The GI50 in [7] was 1.24 µM; in [8], 6.16 µM; in experiment [9], 0.53 µM; in [10], 3.39 µM. Further, the TGI is 12.7 µM in experiment [1]; 3.55 µM in experiment [2]; above 74.5 µM in [3]; 15.6 µM in [4]; 16.6 µM in experiment [5]; 15.6 µM in [6]. Also, the TGI in experiment [7] was 24.2 µM; in experiment [8], above 56.8 µM; in [9], 16.6 µM; in experiment [10], above 72.6 µM.
As for `Oc1ccc2ccccc2c1CCc1c(O)ccc2ccccc12`, the TGI amounted to 27.6 µM in experiment [1]; 25.1 µM in experiment [2]; 22.6 µM in experiment [3]; 18.3 µM in experiment [4]; 26 µM in experiment [5]; 17.4 µM in [6]. Further, the TGI in experiment [7] turned out to be 29.5 µM; in experiment [8], 27.5 µM; in experiment [9], 25.7 µM; in experiment [10], 32.4 µM.
